According to the supplement of paper PMC13380429:

What was measured:
Settings in all cases: 72 h
[1] = test system: Vero E6; test: cell viability relative to DMSO; higher = less toxic
[2] = test system: U2OS; test: as above
[3] = test system: HepG2; test: as above
[4] = test system: Caco-2; test: as above
[5] = test system: Calu-3; test: as above
[6] = test system: Vero E6; test: relative viability EC50 (midpoint between 100% and the lowest measured viability); higher = less toxic
[7] = test system: U2OS; test: as above
[8] = test system: HepG2; test: as above
[9] = test system: Caco-2; test: as above
[10] = test system: Calu-3; test: as above
[11] = test system: Vero E6; test: drug sensitivity score (DSS) for viability; higher = more toxic; extreme values may be limits of the assay
[12] = test system: U2OS; test: as above
[13] = test system: HepG2; test: as above
[14] = test system: Caco-2; test: as above
[15] = test system: Calu-3; test: as above

Structure (SMILES) | cell viability ([1]; 1 nM) | cell viability ([1]; 10 nM) | cell viability ([1]; 100 nM) | cell viability ([1]; 1000 nM) | cell viability ([1]; 10000 nM) | cell viability ([2]; 1 nM) | cell viability ([2]; 10 nM) | cell viability ([2]; 100 nM) | cell viability ([2]; 1000 nM) | cell viability ([2]; 10000 nM) | cell viability ([3]; 1 nM) | cell viability ([3]; 10 nM) | cell viability ([3]; 100 nM) | cell viability ([3]; 1000 nM) | cell viability ([3]; 10000 nM) | cell viability ([4]; 1 nM) | cell viability ([4]; 10 nM) | cell viability ([4]; 100 nM) | cell viability ([4]; 1000 nM) | cell viability ([4]; 10000 nM) | cell viability ([5]; 1 nM) | cell viability ([5]; 10 nM) | cell viability ([5]; 100 nM) | cell viability ([5]; 1000 nM) | cell viability ([5]; 10000 nM) | relative viability EC50 [6] | relative viability EC50 [7] | relative viability EC50 [8] | relative viability EC50 [9] | relative viability EC50 [10] | drug sensitivity score [11] | drug sensitivity score [12] | drug sensitivity score [13] | drug sensitivity score [14] | drug sensitivity score [15]
CO[C@@]1(NC(=O)CSC[C@@H](N)C(=O)O)C(=O)N2C(C(=O)O)=C(CSc3nnnn3C)CS[C@@H]21 [cefminox] | 93.7% | 103% | 99.3% | 104% | 97.8% | 96.6% | 98.8% | 102% | 104% | 101% | 108% | 116% | 96.6% | 98.1% | 92.1% | 106% | 103% | 91.5% | 103% | 98.5% | 116% | 99.8% | 105% | 94.5% | 122% | > 10 µM | > 10 µM | > 10 µM | > 10 µM | > 10 µM | 0 | 0 | 0 | 0 | 0
CCO/N=C(\C(=O)N[C@@H]1C(=O)N2C(C(=O)[O-])=C(Sc3nc(-c4cc[n+](C)cc4)cs3)CS[C@H]12)c1nsc(NP(=O)(O)O)n1 [ceftaroline-fosamil] | 106% | 99.6% | 107% | 97.9% | 102% | 103% | 106% | 99.5% | 107% | 102% | 116% | 95.2% | 105% | 101% | 104% | 94.2% | 101% | 89.4% | 105% | 93.2% | 116% | 109% | 98.4% | 106% | 98.6% | > 10 µM | > 10 µM | > 10 µM | > 10 µM | > 10 µM | 0 | 0 | 0 | 0 | 0
O=C(O)CCCc1ccc(N(CCCl)CCCl)cc1 [chlorambucil] | 102% | 102% | 100% | 98.2% | 97.9% | 104% | 99.7% | 101% | 97.3% | 105% | 103% | 100% | 104% | 101% | 83.9% | 94.9% | 90.6% | 98.2% | 91.8% | 90.2% | 93% | 102% | 94.5% | 101% | 97.6% | > 10 µM | > 10 µM | > 10 µM | > 10 µM | > 10 µM | 0 | 0 | 0.3 | 0 | 0
CC(C)(Oc1ccc(C2CC2(Cl)Cl)cc1)C(=O)O (stereo not given) [ciprofibrate] | 94.1% | 94.4% | 93.4% | 97.2% | 108% | 93.2% | 98.3% | 99.6% | 94.7% | 91.7% | 96.3% | 106% | 99.2% | 96.1% | 100% | 101% | 93.5% | 103% | 86.7% | 102% | 104% | 98.1% | 96.5% | 93.7% | 95.9% | > 10 µM | > 10 µM | > 10 µM | > 10 µM | > 10 µM | 0 | 0 | 0 | 0 | 0
CC(C)(C)CC(C)(C)c1ccc(O)c(Cc2ccc(Cl)cc2Cl)c1 [clofoctol] | 107% | 101% | 102% | 99.8% | 102% | 99.4% | 103% | 102% | 103% | 96.9% | 109% | 98% | 113% | 96.2% | 98.5% | 94.6% | 102% | 99.7% | 99.8% | 93.8% | 91.2% | 96.5% | 92.4% | 90.9% | 98.5% | > 10 µM | > 10 µM | > 10 µM | > 10 µM | > 10 µM | 0 | 0 | 0 | 0 | 0
Cc1nc(C)c(Cl)c(O)c1Cl [clopidol] | 96.9% | 95.9% | 101% | 96.6% | 95.2% | 98.3% | 96.2% | 92.4% | 97.7% | 92.5% | 100% | 99.9% | 104% | 99.2% | 116% | 96.9% | 100% | 94.1% | 99.2% | 92.7% | 105% | 94.2% | 93.6% | 101% | 102% | > 10 µM | > 10 µM | > 10 µM | > 10 µM | > 10 µM | 0 | 0 | 0 | 0 | 0
Cc1nc2c([nH]1)-c1ccccc1N(C(=O)c1ccc(NC(=O)c3ccccc3-c3ccccc3)cc1)CC2 [conivaptan] | 97.9% | 100% | 97.3% | 89.4% | 100% | 101% | 103% | 96.3% | 104% | 97.6% | 97.9% | 97.1% | 101% | 93.6% | 101% | 97.5% | 94.3% | 91.2% | 102% | 91.7% | 102% | 106% | 105% | 94.1% | 96.6% | > 10 µM | > 10 µM | > 10 µM | > 10 µM | > 10 µM | 0 | 0 | 0 | 0 | 0
CN1CCC(=C2c3ccccc3C=Cc3ccccc32)CC1 [cyproheptadine] | 98.8% | 99.5% | 97.3% | 86.1% | 79.3% | 97.6% | 97.4% | 92.1% | 100% | 96.9% | 88.7% | 90.1% | 116% | 103% | 86.6% | 106% | 96.4% | 99.7% | 90.3% | 90.3% | 101% | 97.2% | 91.3% | 106% | 101% | > 10 µM | > 10 µM | > 10 µM | > 10 µM | > 10 µM | 1.8 | 0 | 0 | 0 | 0
CC(C)(C)c1nc(-c2cccc(NS(=O)(=O)c3c(F)cccc3F)c2F)c(-c2ccnc(N)n2)s1 [dabrafenib] | 96.5% | 104% | 103% | 79.8% | 102% | 102% | 93.2% | 107% | 95.3% | 102% | 96.4% | 90.9% | 78.3% | 65.9% | 30.4% | 103% | 97.1% | 98.2% | 77.8% | 101% | 88% | 93.8% | 106% | 99.3% | 124% | > 10 µM | > 10 µM | 0.49 µM | > 10 µM | > 10 µM | 0 | 0 | 9.8 | 0 | 0
CN[C@H]1C(=O)N[C@@H]2Cc3ccc(cc3)Oc3cc4cc(c3O[C@@H]3O[C@H](C(=O)O)[C@@H](O)[C@H](O)[C@H]3NC(=O)CCCCCCCCC(C)C)Oc3ccc(cc3Cl)[C@@H](O)[C@@H]3NC(=O)[C@H](NC(=O)[C@@H]4NC(=O)[C@@H](NC2=O)c2cc(cc(O)c2Cl)Oc2cc1ccc2O)c1ccc(O)c(c1)-c1c(O[C@H]2O[C@H](CO)[C@@H](O)[C@H](O)[C@@H]2O)cc(O)cc1[C@@H](C(=O)NCCCN(C)C)NC3=O [dalbavancin] | 111% | 114% | 109% | 87.3% | 102% | 99.1% | 100% | 96.9% | 98% | 95.8% | 88.7% | 94.3% | 118% | 91.4% | 116% | 89.3% | 106% | 92.6% | 111% | 90.1% | 95.2% | 102% | 95.2% | 103% | 95% | > 10 µM | > 10 µM | > 10 µM | > 10 µM | > 10 µM | 0 | 0 | 0 | 0 | 0
CCCC(=O)O[C@]1(C(=O)COC(C)=O)CC[C@H]2[C@@H]3C[C@H](F)C4=CC(=O)C=C[C@]4(C)[C@@]3(F)[C@@H](O)C[C@@]21C [difluprednate] | 96.9% | 97% | 95.3% | 98.9% | 94.2% | 99.5% | 93.3% | 93.4% | 94.1% | 92.1% | 97.5% | 93.7% | 107% | 105% | 88.3% | 96.6% | 93.2% | 98.3% | 101% | 91.8% | 106% | 90.7% | 87.7% | 90.5% | 102% | > 10 µM | > 10 µM | > 10 µM | > 10 µM | > 10 µM | 0 | 0 | 0 | 0 | 0
